One data set has as its target T1, MMP-8, catalytic domain (Homo sapiens, UniProt P22894).
T1 construct: Enzyme: 8 nM catalytic domain (Met80-Gly242) of human neutrophil collagenase (MMP-8); made in house
In words: Inhibition of MMP-8 catalytic domain, fluorogenic DNP-heptapeptide substrate cleavage. It is filed as biochemical.
Settings: not given
The procedure:
The results are evaluated by plotting the reciprocal reaction rate against the concentration of the inhibitor.
The synthetic collagenase substrate is a heptapeptide which is coupled, at the C terminus, with DNP (dinitrophenol). Said DNP residue quenches by steric hindrance the fluorescence of the adjacent tryptophane of the heptapeptide. After cleavage of a tripeptide which includes the DNP group, the tryptophane fluorescence increases. The proteolytic cleavage of the substrate therefore can be measured by the fluorescence value.
The assay was performed at 25° C. in a freshly prepared 50 mM Tris buffer (pH 8.0) treated with dithiozone to remove traces of heavy metals. 4 mM CaCl2 was added and the buffer saturated with argon. Stock solutions of adamalysin II were prepared by centrifugation of the protein from an ammonium sulfate suspension and subsequent dissolution in the assay buffer. Stock solutions of collagenase were diluted with the assay buffer. Enzyme concentrations were determined by uv measurements (ε280=2.8 10^4 M^−1 cm^−1, ε288: 2.2 10^4 M^−1·cm^−1) and the stock solutions were stored in the cold. […] Substrate fluorescence was measured at an excitation and emission wavelength of λ=320 and 420 nm, respectively, on a spectrofluorimeter (Perkin Elmer, Model 650-40) equipped with a thermostated cell holder. Substrate hydrolysis was monitored for 10 min. immediately after adding the enzyme. All reactions were performed at least in triplicate. The Ki values-of the inhibitors were calculated from the intersection point of the straight lines obtained by the plots of vo/vi vs. [concentration of inhibitor], whereas IC50 values were calculated from plots of vi/vo [concentration of inhibitor] by non-linear regression with simple robust weighting.
50 mM Tris/HCI pH 7.6 (Tris=Tris-(hydroxymethyl)-aminomethane)
100 mM NaCl/10 mM CaCl2/5% MeOH (if necessary)
Enzyme: 8 nM catalytic domain (Met80-Gly242) of human neutrophil collagenase (MMP-8)
Substrate: 10 microM DNP-Pro-Leu-Gly-Leu-Trp-Ala-D-Arg-NH2
A solution of the enzyme and inhibitor in assay buffer (25° C.) was prepared. The reaction was started by giving the substrate into the solution. The cleavage of the fluorogenic substrate was followed by fluorescence spectroscopy with an excitation and emission wavelength of 280 and 350 nm, respectively. The IC50 value was calculated as the inhibitor concentration, which is necessary to decrease the velocity of the reaction to the half in comparison to the reaction without inhibitor.
T1 sequence (P22894 100-262 limits assumed): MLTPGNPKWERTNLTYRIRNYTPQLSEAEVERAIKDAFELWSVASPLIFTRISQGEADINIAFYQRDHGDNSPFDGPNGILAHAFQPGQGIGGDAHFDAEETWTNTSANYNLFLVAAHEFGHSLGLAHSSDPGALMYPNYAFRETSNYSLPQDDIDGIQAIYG
Broadly, the IC50 is the point on the concentration scale where inhibition reaches its midpoint. Consider `O=C1NC(=O)C(NCCN2CCN(c3ncccn3)CC2)(c2ccc(Oc3ccc(Br)cc3)cc2)C(=O)N1` [Example 2 - no. 10, 5-[4-(4-Bromo-phenoxy)-phenyl]-5-[2-(4-pyrimidin-2-yl-piperazin-1-yl)-ethylamino]-pyrimidine-2,4,6-trione], for which the IC50 was 9 nM.

The data set is the same for the next values; noted with them: catalytic domain of human neutrophil collagenase (MMP-8); substrate DNP-Pro-Leu-Gly-Leu-Trp-Ala-D-Arg-NH2; 25° C.; read-out: IC50 Values of MMP-Inhibitor (vs. MMP-8, catalytic domain).
For the molecule `O=C1NC(=O)C(c2ccc(Oc3ccc(Cl)cc3)cc2)(N2CCN(CC(O)CO)CC2)C(=O)N1` (stereo not shown) [Example 1, 5-[4-(4-Chloro-phenoxy)-phenyl]-5-[4-(2,3-dihydroxy-propyl)-piperazin-1-yl]-pyrimidine-2,4,6-trione], the IC50 was determined as 11 nM.

For `O=C1NC(=O)C(c2ccc(Oc3ccc(Cl)cc3)cc2)(N2CCN(CCOCCO)CC2)C(=O)N1` [Example 2 - no. 1], the IC50 was found to be 16 nM.

Consider `O=C1NC(=O)C(c2ccc(Oc3ccc(Cl)cc3)cc2)(N2CCN(CC3COC(=O)O3)CC2)C(=O)N1` (stereo not shown) [Example 2 - no. 2, 5-[4-(4-Chloro-phenoxy)-phenyl]-5-[4-(2-oxo-[1,3]dioxolan-4-ylmethyl)-piperazin-1-yl]-pyrimidine-2,4,6-trione], for which the IC50 stood at 9 nM.

With `CCOCC(O)CN1CCN(C2(c3ccc(Oc4ccc(Cl)cc4)cc3)C(=O)NC(=O)NC2=O)CC1` (stereo not shown) [Example 2 - no. 3, 5-[4-(4-Chloro-phenoxy)-phenyl]-5-[4-(3-ethoxy-2-hydroxy-propyl)-piperazin-1-yl]-pyrimidine-2,4,6-trione], the IC50 was found to be 15 nM.

For `O=C1NC(=O)C(c2ccc(Oc3ccc(Cl)c(Cl)c3)cc2)(N2CCN(CCOCCO)CC2)C(=O)N1` [Example 2 - no. 4, 5-[4-(3,4-Dichloro-phenoxy)-phenyl]-5-4-[2-(2-hydroxy-ethoxy)-ethyl]-piperazin-1-yl-pyrimidine-2,4,6-trione], the IC50 came out at 7 nM.

Turning to `O=C1NC(=O)C(c2ccc(Sc3ccccc3)cc2)(N2CCN(CCOCCO)CC2)C(=O)N1` [Example 2 - no. 5, 5-4-[2-(2-Hydroxy-ethoxy)-ethyl]-piperazin-1-yl-5-(4-phenylsulfanyl-phenyl)-pyrimidine-2,4,6-trione], the IC50 stood at 19 nM.

With `NS(=O)(=O)c1ccc(CN2CCN(C3(c4ccc(Oc5ccc(Br)cc5)cc4)C(=O)NC(=O)NC3=O)CC2)cc1` [Example 2 - no. 11, 4-(4-5-[4-(4-Bromo-phenoxy)-phenyl]-2,4,6-trioxo-hexahydro-pyrimidin-5-yl-piperazin-1-ylmethyl)-benzenesulfonamide], the concentration for half-maximal inhibition (IC50) is 11 nM.

With `O=C(O)CCC(=O)N1CCN(C2(c3ccc(Oc4ccccc4)cc3)C(=O)NC(=O)NC2=O)CC1` [Example 3, 4-Oxo-4-4-[2,4,6-trioxo-5-(4-phenoxy-phenyl)-hexahydro-pyrimidin-5-yl]-piperazin-1-yl-butyric acid], the IC50 worked out at 11 nM.

System in the next data set: not given
Test: not given
Settings: not given
The term melting point denotes the temperature, or range, at which the solid turns liquid. As to `O=C(O)CCC(=O)N1CCN(C2(c3ccc(Oc4ccccc4)cc3)C(=O)NC(=O)NC2=O)CC1` [Example 3, 4-Oxo-4-4-[2,4,6-trioxo-5-(4-phenoxy-phenyl)-hexahydro-pyrimidin-5-yl]-piperazin-1-yl-butyric acid], the melting point was 270 to 275 °C.

The values are drawn from US6716845B2, “Barbituric acid derivatives” (Hoffmann-La Roche Inc., priority 2001, dated 2004).
